Test results as given in ChEMBL document CHEMBL1921668, “Discovery of new aminopyrimidine-based phosphoinositide 3-kinase beta (PI3Kβ) inhibitors with selectivity over PI3Kα” (Bioorg Med Chem Lett, 2011).
pIC50, pKd: −log10 of the molar value.

Experiments:
[1] = molecular target: Phosphatidylinositol 4,5-bisphosphate 3-kinase catalytic subunit gamma isoform (Homo sapiens) (UniProt P48736); test: Inhibition of PI3Kgamma assessed as enzyme activity relative to control; parameters: scale not given: the % may be the effect or the level left
[2] = molecular target: T1, Phosphatidylinositol 4,5-bisphosphate 3-kinase catalytic subunit delta isoform (Homo sapiens) (UniProt O00329); test: Inhibition of PI3Kdelta assessed as enzyme activity relative to control; parameters: concentration or dose not given beside the values
T1 sequence (whole entry): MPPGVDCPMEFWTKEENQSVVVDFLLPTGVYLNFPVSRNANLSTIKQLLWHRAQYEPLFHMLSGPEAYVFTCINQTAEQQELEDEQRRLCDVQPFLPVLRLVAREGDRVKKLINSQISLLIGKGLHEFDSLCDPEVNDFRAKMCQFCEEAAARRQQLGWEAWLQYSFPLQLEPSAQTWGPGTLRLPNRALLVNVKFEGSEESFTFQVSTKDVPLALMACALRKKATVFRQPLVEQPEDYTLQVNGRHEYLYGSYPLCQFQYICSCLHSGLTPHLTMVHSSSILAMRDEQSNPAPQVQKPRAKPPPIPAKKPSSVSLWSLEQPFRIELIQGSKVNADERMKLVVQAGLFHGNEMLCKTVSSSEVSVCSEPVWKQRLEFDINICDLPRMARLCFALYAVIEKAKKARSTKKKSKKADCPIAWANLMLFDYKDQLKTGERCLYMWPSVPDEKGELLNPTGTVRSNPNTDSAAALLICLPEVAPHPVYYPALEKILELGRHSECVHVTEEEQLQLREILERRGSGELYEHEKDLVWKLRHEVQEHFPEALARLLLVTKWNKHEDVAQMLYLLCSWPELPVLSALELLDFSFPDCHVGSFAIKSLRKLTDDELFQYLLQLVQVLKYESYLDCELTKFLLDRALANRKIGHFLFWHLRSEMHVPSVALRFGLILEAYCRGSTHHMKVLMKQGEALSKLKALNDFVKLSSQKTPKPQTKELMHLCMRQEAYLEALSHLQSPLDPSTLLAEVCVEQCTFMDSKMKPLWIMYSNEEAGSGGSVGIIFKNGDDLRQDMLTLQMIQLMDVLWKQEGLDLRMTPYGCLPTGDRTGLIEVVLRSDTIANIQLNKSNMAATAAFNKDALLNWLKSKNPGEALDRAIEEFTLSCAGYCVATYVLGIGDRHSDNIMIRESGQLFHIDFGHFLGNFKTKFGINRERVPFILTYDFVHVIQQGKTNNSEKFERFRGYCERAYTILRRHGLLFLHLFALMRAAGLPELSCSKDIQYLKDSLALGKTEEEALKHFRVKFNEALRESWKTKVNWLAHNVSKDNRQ

[3] = molecular target: T2, Phosphatidylinositol 4,5-bisphosphate 3-kinase catalytic subunit beta isoform (Homo sapiens, UniProt P42338); test: Binding affinity to PI3Kbeta
Target sequence in this assay (P42338 whole entry, canonical isoform): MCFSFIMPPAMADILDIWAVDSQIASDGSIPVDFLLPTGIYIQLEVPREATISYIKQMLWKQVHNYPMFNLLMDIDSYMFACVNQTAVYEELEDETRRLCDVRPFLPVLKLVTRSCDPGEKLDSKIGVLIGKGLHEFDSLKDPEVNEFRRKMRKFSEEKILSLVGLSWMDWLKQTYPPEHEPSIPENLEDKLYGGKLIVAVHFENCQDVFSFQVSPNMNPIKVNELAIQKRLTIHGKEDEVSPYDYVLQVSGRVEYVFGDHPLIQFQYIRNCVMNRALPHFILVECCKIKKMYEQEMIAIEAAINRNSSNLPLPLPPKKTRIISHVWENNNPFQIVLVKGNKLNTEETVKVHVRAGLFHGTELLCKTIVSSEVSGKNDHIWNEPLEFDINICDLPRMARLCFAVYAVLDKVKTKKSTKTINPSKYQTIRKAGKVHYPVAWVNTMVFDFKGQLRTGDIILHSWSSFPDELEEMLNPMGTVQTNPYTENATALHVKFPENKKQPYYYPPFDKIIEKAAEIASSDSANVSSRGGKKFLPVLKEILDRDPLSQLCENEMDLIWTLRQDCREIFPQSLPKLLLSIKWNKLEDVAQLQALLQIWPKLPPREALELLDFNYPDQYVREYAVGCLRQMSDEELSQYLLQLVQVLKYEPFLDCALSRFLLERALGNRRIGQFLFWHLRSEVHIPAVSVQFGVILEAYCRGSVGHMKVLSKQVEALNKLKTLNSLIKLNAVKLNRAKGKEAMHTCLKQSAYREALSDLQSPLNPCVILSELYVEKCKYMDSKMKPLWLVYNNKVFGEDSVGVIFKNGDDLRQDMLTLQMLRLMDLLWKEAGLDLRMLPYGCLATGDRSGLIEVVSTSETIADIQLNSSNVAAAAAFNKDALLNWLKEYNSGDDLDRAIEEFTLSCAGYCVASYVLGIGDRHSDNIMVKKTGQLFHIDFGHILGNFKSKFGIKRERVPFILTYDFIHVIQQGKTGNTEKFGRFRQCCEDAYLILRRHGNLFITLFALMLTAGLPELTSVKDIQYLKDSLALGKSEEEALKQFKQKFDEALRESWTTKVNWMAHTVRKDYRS

[4] = molecular target: T2, Phosphatidylinositol 4,5-bisphosphate 3-kinase catalytic subunit beta isoform; test: Inhibition of PI3Kbeta assessed as enzyme activity at 10 uM relative to control; parameters: scale not given: the % may be the effect or the level left
Target sequence in this assay (P42338 whole entry, looked up, canonical isoform): as the sequence (P42338 whole entry, canonical isoform) above

[5] = molecular target: T3, Phosphatidylinositol 4,5-bisphosphate 3-kinase catalytic subunit alpha isoform (Homo sapiens, UniProt P42336); test: Inhibition of PI3Kalpha assessed as enzyme activity at 10 uM relative to control; parameters: scale not given: the % may be the effect or the level left
[6] = molecular target: Serine/threonine-protein kinase mTOR (Homo sapiens) (UniProt P42345); test: Inhibition of mTOR assessed as enzyme activity relative to control; parameters: concentration or dose not given beside the values
[7] = system: T47D; test: Antiproliferative activity against human T47D cells by MTT assay; assay type: functional, cell-based
[8] = molecular target: T3, Phosphatidylinositol 4,5-bisphosphate 3-kinase catalytic subunit alpha isoform; test: Binding affinity to PI3Kalpha

T3 sequence (P42336 whole entry, canonical isoform): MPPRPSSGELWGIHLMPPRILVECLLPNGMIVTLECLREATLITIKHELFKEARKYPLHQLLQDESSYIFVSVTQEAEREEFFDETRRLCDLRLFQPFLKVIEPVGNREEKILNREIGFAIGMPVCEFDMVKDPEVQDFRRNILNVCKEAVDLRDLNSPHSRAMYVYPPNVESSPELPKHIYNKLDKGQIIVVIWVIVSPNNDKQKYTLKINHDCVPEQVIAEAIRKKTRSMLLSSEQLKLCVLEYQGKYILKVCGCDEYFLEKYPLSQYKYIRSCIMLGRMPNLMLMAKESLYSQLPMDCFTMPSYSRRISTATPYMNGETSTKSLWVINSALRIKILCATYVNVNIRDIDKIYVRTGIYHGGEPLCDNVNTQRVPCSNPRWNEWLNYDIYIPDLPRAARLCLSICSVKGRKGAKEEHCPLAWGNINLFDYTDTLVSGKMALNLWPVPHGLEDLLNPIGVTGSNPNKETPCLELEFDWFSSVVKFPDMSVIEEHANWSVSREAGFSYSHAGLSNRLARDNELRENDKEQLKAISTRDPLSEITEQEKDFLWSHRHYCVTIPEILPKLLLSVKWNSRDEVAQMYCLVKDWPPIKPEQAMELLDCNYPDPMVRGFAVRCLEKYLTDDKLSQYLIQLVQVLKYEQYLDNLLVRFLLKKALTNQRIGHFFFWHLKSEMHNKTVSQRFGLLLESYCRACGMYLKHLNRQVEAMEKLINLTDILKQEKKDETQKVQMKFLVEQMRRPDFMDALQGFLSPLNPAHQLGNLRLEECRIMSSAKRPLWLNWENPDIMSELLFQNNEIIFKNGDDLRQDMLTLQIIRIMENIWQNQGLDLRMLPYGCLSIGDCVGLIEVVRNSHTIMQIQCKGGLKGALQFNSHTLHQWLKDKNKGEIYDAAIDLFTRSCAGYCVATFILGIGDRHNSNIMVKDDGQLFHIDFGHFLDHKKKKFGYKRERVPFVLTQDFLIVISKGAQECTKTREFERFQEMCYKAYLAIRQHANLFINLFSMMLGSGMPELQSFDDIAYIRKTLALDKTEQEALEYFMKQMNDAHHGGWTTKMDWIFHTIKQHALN
Chain of Phosphatidylinositol 4,5-bisphosphate 3-kinase catalytic subunit gamma isoform (Homo sapiens) (P48736 whole entry, looked up, canonical isoform): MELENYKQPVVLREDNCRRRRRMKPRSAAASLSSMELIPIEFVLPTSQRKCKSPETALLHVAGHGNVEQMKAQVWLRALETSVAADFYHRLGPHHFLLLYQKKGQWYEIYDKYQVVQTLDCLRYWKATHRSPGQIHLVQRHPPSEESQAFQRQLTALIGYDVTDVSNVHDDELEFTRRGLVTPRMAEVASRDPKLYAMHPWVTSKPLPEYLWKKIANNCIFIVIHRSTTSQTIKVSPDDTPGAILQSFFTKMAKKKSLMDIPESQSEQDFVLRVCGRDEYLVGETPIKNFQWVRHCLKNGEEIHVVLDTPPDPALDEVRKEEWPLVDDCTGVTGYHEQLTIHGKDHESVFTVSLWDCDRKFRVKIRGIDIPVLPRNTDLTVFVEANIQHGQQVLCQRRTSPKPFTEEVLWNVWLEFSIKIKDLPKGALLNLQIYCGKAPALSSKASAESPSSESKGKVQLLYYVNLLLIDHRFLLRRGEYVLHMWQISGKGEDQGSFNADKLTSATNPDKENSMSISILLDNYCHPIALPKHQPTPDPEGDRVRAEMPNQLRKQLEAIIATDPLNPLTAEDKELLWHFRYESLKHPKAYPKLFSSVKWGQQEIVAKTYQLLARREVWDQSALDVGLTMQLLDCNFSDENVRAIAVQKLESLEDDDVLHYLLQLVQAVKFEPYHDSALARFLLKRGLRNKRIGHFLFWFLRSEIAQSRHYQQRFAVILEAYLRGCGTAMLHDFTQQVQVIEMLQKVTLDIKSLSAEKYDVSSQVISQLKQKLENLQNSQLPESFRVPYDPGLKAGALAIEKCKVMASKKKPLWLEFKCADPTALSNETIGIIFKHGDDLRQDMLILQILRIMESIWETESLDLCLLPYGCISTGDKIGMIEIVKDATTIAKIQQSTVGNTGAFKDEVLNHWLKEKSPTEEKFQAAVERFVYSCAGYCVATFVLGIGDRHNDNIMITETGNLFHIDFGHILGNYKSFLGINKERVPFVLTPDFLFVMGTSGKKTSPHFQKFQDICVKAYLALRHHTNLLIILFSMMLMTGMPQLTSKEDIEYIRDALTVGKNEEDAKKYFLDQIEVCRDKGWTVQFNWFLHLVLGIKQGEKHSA

Activity [1] [%] | Activity [2] [%] | pKd [3] | Activity [4] [%] | Activity [5] [%] | Activity [6] [%] | pIC50 [7] | pKd [8] | SMILES
24 | 4.2 | 6.44 | 1.4 | 60 | 74 | 5.02 |  | Nc1ncc(-c2cncc(NS(=O)(=O)c3ccccc3)c2)cn1
 |  |  | 18 | 89 |  |  |  | Cc1nc(N)nc(C)c1-c1cncc(NS(=O)(=O)c2ccccc2)c1
 |  |  | 4.9 | 56 |  |  |  | O=S(=O)(Nc1cncc(-c2cnc3[nH]ccc3c2)c1)c1ccccc1
 |  |  | 34 | 100 |  |  |  | CC(=O)Nc1ncc(-c2cncc(NS(=O)(=O)c3ccccc3)c2)cn1
98 | 65 | < 4.70 | 69 | 97 | 79 |  |  | CC(=O)Nc1cncc(-c2cnc(N)nc2)c1
 |  |  | 66 | 100 |  |  |  | CN(C)c1ncc(-c2cncc(NS(=O)(=O)c3ccccc3)c2)cn1
9.6 | 0.9 | 6.37 | 1.2 | 30 | 41 |  |  | Nc1ncc(-c2cncc(NS(=O)(=O)c3cccc(C(F)(F)F)c3)c2)cn1
 |  |  | 0.6 | 4 |  |  |  | O=S(=O)(Nc1cncc(-c2ccc3nccn3c2)c1)c1ccccc1
 |  |  | 5.2 | 66 |  |  |  | Cc1nc(N)ncc1-c1cncc(NS(=O)(=O)c2ccccc2)c1

Further lines, the compound ahead of its results:

SMILES | Activity [1] [%] | Activity [2] [%] | pKd [3] | Activity [4] [%] | Activity [5] [%] | Activity [6] [%] | pIC50 [7] | pKd [8]
Nc1ncc(-c2cncc(NS(=O)(=O)c3ccc([N+](=O)[O-])cc3)c2)cn1 | 6.7 | 9.5 | 6.26 | 1.6 | 18 | 68 |  | 
CNc1ncc(-c2cncc(NS(=O)(=O)c3ccccc3)c2)cn1 |  |  |  | 5.2 | 39 |  |  | 
Cc1ccc(S(=O)(=O)Nc2cncc(-c3cnc(N)nc3)c2)cc1[N+](=O)[O-] | 5.3 | 0.1 | 6.60 | 0.7 | 42 | 78 |  | 
Nc1cncc(-c2cnc(N)nc2)c1 | 100 | 82 | < 4.40 | 86 | 98 | 53 |  | 
Nc1ncc(-c2cncc(NS(=O)(=O)c3ccc(F)cc3F)c2)cn1 | 7.2 | 4.7 | 6.66 | 0.7 | 22 | 56 | 5.07 | 
Nc1ncc(-c2cncc(NS(=O)(=O)c3ccc4ccccc4c3)c2)cn1 | 25 | 4.2 | 6.64 | 1 | 92 | 96 |  | < 4.40
O=S(=O)(Nc1cncc(-c2cnc3nccn3c2)c1)c1ccccc1 |  |  |  | 39 | 95 |  |  | 
O=S(=O)(Nc1cncc(-c2cccnc2)c1)c1ccccc1 |  |  |  | 7.4 | 52 |  |  | 
COc1ccc(S(=O)(=O)Nc2cncc(-c3cnc(N)nc3)c2)cc1 | 20 | 4.3 | 6.30 | 1.7 | 87 | 39 |  | 
Nc1ncc2cc(-c3cncc(NS(=O)(=O)c4ccccc4)c3)ccc2n1 |  |  |  | 0 | 0 |  |  | 
CS(=O)(=O)Nc1cncc(-c2cnc(N)nc2)c1 | 43 | 38 | 5.28 | 28 | 62 | 67 |  | 
Cc1ccc(S(=O)(=O)Nc2cncc(-c3cnc(N)nc3)c2)cc1 | 8.2 | 3.4 | 7.00 | 0.5 | 17 | 76 | 5.33 | 
